Earlier results in patent US20080213414A1, “Compositions containing phaseolus vulgaris extract and alpinia officinarum extract for the prevention and treatment of obesity and type II diabetes” (priority 2005, published 2008).

Assays:
[1] = biological target: T1, pancreatic lipase (Homo sapiens, UniProt P16233)
T1 sequence (P16233 17-465): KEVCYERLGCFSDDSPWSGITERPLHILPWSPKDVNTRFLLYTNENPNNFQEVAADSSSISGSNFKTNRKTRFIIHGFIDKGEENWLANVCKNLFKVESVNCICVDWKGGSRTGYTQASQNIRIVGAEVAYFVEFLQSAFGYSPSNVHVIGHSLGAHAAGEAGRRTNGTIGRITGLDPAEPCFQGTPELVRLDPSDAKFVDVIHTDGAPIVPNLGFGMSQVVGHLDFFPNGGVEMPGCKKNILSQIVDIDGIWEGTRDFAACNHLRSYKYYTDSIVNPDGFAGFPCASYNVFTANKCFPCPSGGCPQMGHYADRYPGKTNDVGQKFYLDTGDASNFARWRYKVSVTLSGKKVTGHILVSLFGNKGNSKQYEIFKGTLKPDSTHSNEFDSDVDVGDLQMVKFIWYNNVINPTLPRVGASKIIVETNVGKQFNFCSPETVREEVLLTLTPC

[2] = without gastroprotection

## COc1c(-c2ccccc2)oc2cc(O)cc(O)c2c1=O [3-methylethergalangin]
[1]
  IC50, inhibition of pancreatic lipase: around 1 mg/ml
[2]
  stability to the gastric juices: not broken down by the gastric juices
